Results reported in patent US10028961B2, “Therapeutically active compounds and their methods of use” (AGIOS PHARMACEUTICALS, INC., priority 2013, dated 2018).

How the values were obtained:
[1] = system: Neurosphere cells (TS603); assay: Cellular assay for IDH1m R132H inhibitors, 2-HG by LC-MS in neurosphere cells (TS603); format: cell-based; conditions: 2-HG in media at 48 hours
Summary of the method: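 TS603 neurosphere cells in NeuroCult medium were dosed with compound (0.25% DMSO final) at 37 C, 5% CO2. After 48 hours, medium 2-HG was measured by LC-MS. At 72 hours, viability was read by CellTiter-Glo luminescence.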

[2] = molecular target: IDH1 wt/IDH1 R132H heterodimer (Homo sapiens (Human), UniProt O75874, R132H); assay: In vitro assay for IDH1m R132H inhibitors, IDH1 wt/IDH1 R132H heterodimer, NADPH depletion (diaphorase/resazurin); format: biochemical; conditions: IDH1 wt/R132H heterodimer, NADPH/NADP, not saturated; read-out: IDH1 wt/R132H NADPH/NADP IC50 not saturated
Summary of the method: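 Read-out is NADPH left after α-KG reduction to 2-HG, measured via resorufin fluorescence after 5 min diaphorase/resazurin step at 25° C. Enzyme is sf9-expressed IDH1wt-his/IDH1R132H-flag heterodimer, pre-incubated 1 hr at room temperature with compound and cofactor. IC50s from DMSO stocks diluted 1:50.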

[3] = molecular target: IDH1 wt/IDH1 R132C heterodimer (Homo sapiens (Human), UniProt O75874, R132C); assay: In vitro assay for IDH1m R132C inhibitors, IDH1 wt/IDH1 R132C heterodimer, NADPH depletion (diaphorase/resazurin); format: biochemical; conditions: NADPH/NADP
Summary of the method: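 Remaining NADPH was measured by diaphorase/resazurin conversion (5 min, 25 °C) as resorufin fluorescence, Ex 544/Em 590. DMSO was diluted 1:50 into the reaction, and IC50s were derived.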

Sequence of IDH1 wt/IDH1 R132C heterodimer (O75874 whole entry R132C): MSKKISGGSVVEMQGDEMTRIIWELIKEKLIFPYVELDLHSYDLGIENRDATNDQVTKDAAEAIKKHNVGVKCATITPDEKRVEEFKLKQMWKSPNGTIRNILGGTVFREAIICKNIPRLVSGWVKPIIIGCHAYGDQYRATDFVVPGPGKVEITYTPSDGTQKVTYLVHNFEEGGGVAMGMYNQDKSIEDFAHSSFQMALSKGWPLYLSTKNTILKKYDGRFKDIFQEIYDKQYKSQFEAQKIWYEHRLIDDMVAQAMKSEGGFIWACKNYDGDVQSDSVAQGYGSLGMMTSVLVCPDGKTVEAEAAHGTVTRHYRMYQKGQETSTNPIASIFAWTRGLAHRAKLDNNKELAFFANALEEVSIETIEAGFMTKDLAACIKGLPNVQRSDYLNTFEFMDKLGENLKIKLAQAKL
Sequence of IDH1 wt/IDH1 R132C heterodimer (O75874 whole entry, stated change not applied): as the sequence (O75874 whole entry R132C) above, with C132R counted along it
Sequence of IDH1 wt/IDH1 R132H heterodimer (O75874 whole entry R132H): as the sequence (O75874 whole entry R132C) above, with C132H counted along it
Sequence of IDH1 wt/IDH1 R132H heterodimer (O75874 whole entry, stated change not applied): as the sequence (O75874 whole entry R132C) above, with C132R counted along it

Structure (SMILES) | IC50 [1] [nM] | IC50 [2] [nM] | IC50 [3] [nM]
N#CC1(c2cc(Nc3nc(NCC(F)(F)F)nc(-c4cccc(C(F)(F)F)n4)n3)ccn2)CC1 [Compound 226] | < 50 | < 50 | 50 to 100
FC1(F)CCC(Nc2nc(NC3CCN(c4ncccn4)C3)nc(-c3cccc(C(F)(F)F)n3)n2)C1 (stereo not drawn) [Compound 227] | < 50 | < 50 | 50 to 100
N#CC1(c2cc(Nc3nc(NC4CC5(C4)CC(F)(F)C5)nc(-c4cccc(C(F)(F)F)n4)n3)ccn2)CC1 [Compound 229] | < 50 | < 50 | 50 to 100
CC(C)(CC#N)Nc1nc(Nc2ccnc(C(C)(F)F)c2)nc(-c2cccc(C(F)(F)F)n2)n1 [Compound 231] | < 50 | < 50 | 50 to 100
FC1(F)CCC(Nc2nc(NC3CCC(F)(F)C3)nc(-c3nccc(C(F)(F)F)n3)n2)C1 (stereo not drawn) [Compound 237] | < 50 | < 50 | < 50
CC(C)(O)CNc1nc(Nc2cc(F)cc(C#N)c2)nc(-c2cccc(C(F)(F)F)n2)n1 [Compound 244] | < 50 | 50 to 100 | 100 to 1000
CC(C)(C)Nc1nc(Nc2cc(F)cc(C#N)c2)nc(-c2nccc(C(F)(F)F)n2)n1 [Compound 245] | < 50 | 50 to 100 | 100 to 1000
CC(C)(C#N)Nc1nc(Nc2ccnc(C(C)(F)F)c2)nc(-c2cccc(C(F)(F)F)n2)n1 [Compound 247] | < 50 | 50 to 100 | 50 to 100
CC(CC#N)Nc1nc(Nc2ccnc(C(C)(F)F)c2)nc(-c2cccc(C(F)(F)F)n2)n1 (stereo not drawn) [Compound 250] | < 50 | 50 to 100 | 100 to 1000
FC1(F)CCC(Nc2nc(NC3CCC(F)(F)C3)nc(-c3cccc(OC(F)(F)F)n3)n2)C1 (stereo not drawn) [Compound 252] | 50 to 100 | 50 to 100 | 100 to 1000
CC(C#N)Nc1nc(Nc2ccnc(C(C)(F)F)c2)nc(-c2cccc(C(F)(F)F)n2)n1 (stereo not drawn) [Compound 253] | < 50 | 50 to 100 | 100 to 1000
FC1(F)CC(Nc2nc(NC3CC(F)(F)C3)nc(-c3nccc(C(F)(F)F)n3)n2)C1 [Compound 256] | < 50 | 100 to 1000 | 50 to 100
N#CC1(c2cc(Nc3nc(NC4CCC(F)(F)C4)nc(-c4nccc(C(F)(F)F)n4)n3)ccn2)CC1 (stereo not drawn) [Compound 261] | 50 to 100 | 100 to 1000 | 50 to 100
CS(=O)(=O)N1CCC(Nc2nc(NC3CCC(F)(F)CC3)nc(-c3cccc(C(F)(F)F)n3)n2)CC1 [Compound 266] | < 50 | 100 to 1000 | 100 to 1000
C[C@@H](Nc1nc(N[C@H](C)C2CC2)nc(-c2nccc(C(F)(F)F)n2)n1)C1CC1 [Compound 268] | < 50 | 100 to 1000 | < 50
FC1(F)CCC(Nc2nc(NC3CCC(F)(F)CC3)nc(-c3nccc(C(F)(F)F)n3)n2)CC1 [Compound 293] | ≥ 1000 | 100 to 1000 | 100 to 1000
